Assay results: patent US8980325B2, “Compositions and methods for treating digestive disorders” (Revalesio Corporation, priority 2008, dated 2015)

Test system: glutathione peroxidase
Experiment: Hydrogen peroxide tests, glutathione peroxidase reactivity
Assay type: biochemical
Details: A340 nm, 25 degrees Celsius; low and high concentration
Procedure: The inventive oxygen-enriched output fluid material was tested for the presence of hydrogen peroxide by testing the reactivity with glutathione peroxidase using a standard assay (Sigma). Briefly, glutathione peroxidase enzyme cocktail was constituted in deionized water and the appropriate buffers. Water samples were tested by adding the enzyme cocktail and inverting. Continuous spectrophotometric rate determination was made at A340 nm, and room temperature (25 degrees Celsius).
Water samples were tested by adding the enzyme cocktail and inverting. Continuous spectrophotometric rate determination was made at A340 nm, and room temperature (25 degrees Celsius).

OO [hydrogen peroxide]
reactivity with glutathione peroxidase: strong reactivity
